Patent US4605662A, “1-substituted pyrrolizidine derivatives and antiarrhythmic use thereof” (Suntory Ltd., priority 1982, dated 1986)

Tests used:
[1] = system: ventricular flutter and fibrillation; assay: Protection against chloroform-induced ventricular arrhythmias in mice (Lawson method), subcutaneous; format: in vivo, ddy strain); conditions: 30 min before chloroform inhalation, male ddy mice; for ED50 / ED20 / ED40: Mus musculus, sc; for ED50: read-out: ED50 (95% confidence limits), antiarrhythmic activity; for ED20: read-out: ED20, antiarrhythmic activity; for ED40: read-out: ED40, antiarrhythmic activity
Experimental: In accordance with the method described by J. W. Lawson (Journal of Pharmacology and Experimental Therapeutics, vol. 160, pp. 22, 1968), male mice of the ddy strain weighing 16 to 30 g were allowed to inhale chloroform to induce ventricular arrhythmias. At the time when they ceased to breathe, the electrocardiogram of each animal was recorded to observe the ventricular flutter and fibrillation. The abnormalities of the ventricles observed in these animals can be prevented by pretreatment with substances which have antiarrhythmic activity. The compounds of this invention were subcutaneously injected in 4-5 different doses to groups of 29 to 40 mice. Thirty minutes later, the mice were subjected to inhalation of chloroform to induce arrhythmias, and the protection by each dose against the ventricular flutter and fibrillation were expressed as percent. […]

[2] = 50% lethal dose (LD50) by Up and Down Method in mice, and therapeutic index; format: in vivo; conditions: mouse, in vivo; Up and Down Method; male ddy mice 18 to 22 g
From the text: (§1) The 50% lethal doses (median lethal doses, LD50) were computed by the "Up and Down Method" (Pharmacological Experiment, compiled by Takagi and Ozawa, pp. 204, Nanzando, 1972) using male mice of the ddy strain weighing 18 to 22 g, and the ratios of the LD50 to ED50 values were expressed as the therapuetic indices, as presented in Table 1.

[3] = system: male mice of the ddy strain; assay: as above; format: in vivo; conditions: LD50/ED50
From the text: as §1

`COc1ccccc1NC(=O)[C@@H]1CCN2CCC[C@@H]12` (relative stereo) [II] showed an ED50 ([1]; Litchfield and Wilcoxon) of 74 mg/kg and an LD50 [2] of over 500 mg/kg.

`Cc1cccc(NC(=O)[C@@H]2CCN3CCC[C@@H]23)c1C` (relative stereo) [VII] showed an ED50 ([1]; Litchfield and Wilcoxon) of over 100 mg/kg, an ED20 [1] of 100 mg/kg and an LD50 [2] of over 500 mg/kg.

Molecule `O=C(Nc1ccccc1Br)[C@@H]1CCN2CCC[C@@H]12` (relative stereo) [VI] has an ED50 ([1]; Litchfield and Wilcoxon) of over 100 mg/kg, an ED40 [1] of 100 mg/kg and an LD50 [2] of over 500 mg/kg.

With `O=C(Nc1ccccc1Cl)[C@@H]1CCN2CCC[C@@H]12` (relative stereo) [V] the “ED50 (95% confidence limits), antiarrhythmic activity” value ([1]; Litchfield and Wilcoxon) was 100 mg/kg, the ED50 ([1]; Litchfield and Wilcoxon) was over 100 mg/kg and the LD50 [2] was 263 mg/kg.

With `COc1cccc(NC(=O)[C@@H]2CCN3CCC[C@@H]23)c1` (relative stereo) [III] the ED50 ([1]; Litchfield and Wilcoxon) was over 100 mg/kg, the ED40 [1] was 100 mg/kg and the LD50 [2] was over 500 mg/kg.

Work on `Cc1cc(C)c(NC(=O)[C@@H]2CCN3CCC[C@@H]23)c(C)c1` (relative stereo) [XV] yielded an ED50 ([1]; Litchfield and Wilcoxon) of over 100 mg/kg, an ED20 [1] of 100 mg/kg and an LD50 [2] of 394 mg/kg.

For `Cc1cccc(C)c1NC(=O)[C@@H]1CCN2CCC[C@@H]12` (relative stereo) [IX], the ED50 ([1]; Litchfield and Wilcoxon) was 29 mg/kg, the LD50 [2] was 447 mg/kg and the “Therapeutic index (ratio of LD50 to ED50)” value [3] was 15.4.

For `CCc1cccc(CC)c1NC(=O)[C@@H]1CCN2CCC[C@@H]12` (relative stereo) [XI], the ED50 ([1]; Litchfield and Wilcoxon) was 38 mg/kg, the LD50 [2] was 244 mg/kg and the “Therapeutic index (ratio of LD50 to ED50)” value [3] was 6.24.

Molecule `COc1ccc(NC(=O)[C@@H]2CCN3CCC[C@@H]23)cc1` (relative stereo) [IV] has an ED50 ([1]; Litchfield and Wilcoxon) of over 100 mg/kg, an ED20 [1] of 100 mg/kg and an LD50 [2] of over 500 mg/kg.

With `Cc1cc(C)cc(NC(=O)[C@@H]2CCN3CCC[C@@H]23)c1` (relative stereo) [X] the ED50 ([1]; Litchfield and Wilcoxon) was 100 mg/kg, the ED20 [1] was over 100 mg/kg and the LD50 [2] was over 500 mg/kg.

With `COc1ccc(OC)c(NC(=O)[C@@H]2CCN3CCC[C@@H]23)c1` (relative stereo) [XII] the ED50 ([1]; Litchfield and Wilcoxon) was over 100 mg/kg, the ED40 [1] was 100 mg/kg and the LD50 [2] was over 500 mg/kg.

With `O=C(Nc1c(Cl)cccc1Cl)[C@@H]1CCN2CCC[C@@H]12` (relative stereo) [XIII] the ED50 ([1]; Litchfield and Wilcoxon) was 38 mg/kg, the LD50 [2] was 263 mg/kg and the “Therapeutic index (ratio of LD50 to ED50)” value [3] was 6.92.

With `Cc1ccccc1NC(=O)[C@@H]1CCN2CCC[C@@H]12` (relative stereo) the ED50 ([1]; Litchfield and Wilcoxon) was over 100 mg/kg, the ED20 [1] was 100 mg/kg and the LD50 [2] was over 500 mg/kg.

For `O=C(Nc1c(Br)cccc1Br)[C@@H]1CCN2CCC[C@@H]12` (relative stereo) [XIV], the ED50 ([1]; Litchfield and Wilcoxon) was 43 mg/kg, the LD50 [2] was 468 mg/kg and the “Therapeutic index (ratio of LD50 to ED50)” value [3] was 10.88.

Work on `Cc1ccc(C)c(NC(=O)[C@@H]2CCN3CCC[C@@H]23)c1` (relative stereo) [VIII] yielded an ED50 ([1]; Litchfield and Wilcoxon) of over 100 mg/kg, an ED20 [1] of 100 mg/kg and an LD50 [2] of over 500 mg/kg.
